The text below walks through data of US20230210803A1, “TRANS-CROCETIN COMPOSITIONS AND TREATMENT REGIMENS” (L.E.A.F. HOLDINGS GROUP LLC, priority 2020, published 2023).

The nature of data set [1]: Liposomal CTC and MTC PK in mice. Also noted: species or system Balb/c mice. The conditions noted are these: mouse, in vivo.
Description: 5 μL of each plasma sample was mixed with 395 μL methanol containing 1% formic acid. Sample mixtures were well mixed by vortexing. […] Samples were vortexed and then centrifuged at 10000 RPM for 10 min at room temperature. 200 μL of supernatant was removed from each sample without disturbing pellet and analyzed by HPLC. If the amount of plasma permitted, this analysis was duplicated.
The concentration of STC in the plasma samples was quantified by standard curve constructed by analyzing plasma samples containing known amount of STC. PK profiles were analyzed.
For data set [2] the following is noted: mouse, in vivo, iv, 50 mg/kg.
A short description of data set [3]: PK of L4L-121 versus free TC in healthy mice. The conditions noted are these: mouse, in vivo, one intravenous injection 2.5 mg/kg (normalized to TC). An excerpt: […]. […] […]. […] […]
In a further data set the test system is HUVECs. Kind of data set: Reoxygenation of HUVECs under hypoxic conditions (BioTracker 520 Green Hypoxia Dye, flow cytometry). Particulars: continuous hypoxic conditions (1% PO2).

Description for HUVECs: For quantification of the hypoxia levels, cells were then incubated for 1 h with 1.5 μM BioTracker 520 Green Hypoxia Dye (Sigma-Aldrich) before being washed and stored in the hypoxia chamber for 1 h. […] Hypoxia levels were quantified with a BD Accuri™ C6 cell analyzer with a direct read-out of the BioTracker probe. The results were analyzed with FlowJo software version 10 (TreeStar).

Regarding `CC(/C=C/C=C(\C)C(=O)[O-])=C\C=C\C=C(C)\C=C\C=C(/C)C(=O)[O-].[Na+].[Na+]` [STC free drug, sodium trans-crocetinate], the “half-life (t1/2)” value in data set [1] was “half an hour”. Besides, the T½ entry in data set [2] is on record as “less than 0.5 h”.
With `CC(/C=C/C=C(\C)C(=O)O)=C\C=C\C=C(C)\C=C\C=C(/C)C(=O)O` [free TC, trans-crocetin free acid], in data set [3], the half-life is 37.1 min. Besides, in data set [3] (read-out: exposure (AUC)), the area under the curve (AUC) turned out to be 2700 ng·h/mL. In addition, the “reoxygenation effect (PO2)” value in the data set with HUVECs (5 μg/mL TC, 30 min post-treatment) is listed as “up to 15 % PO2”. Further, the “PO2 after loss of efficacy” value in the data set with HUVECs (3 h after treatment) is 5 % PO2.

As usually defined, the half-life is the time in which the quantity being followed falls by half. For orientation: AUC means the area under the concentration-time curve, a measure of exposure.
